BindingDB's records for doi:10.1016/j.bmcl.2015.03.038 (Bristol Myers Squibb, 2015)

Legend:
[1] = target: Neurogenic locus notch homolog protein 1 (Homo sapiens, UniProt P46531); assay: Inhibition of Notch1 intracellular domain fragment transfected in human HeLa cells co-transfected with CBF1-PGL3 luciferase reporter vector by transactivation assay
[2] = target: Neurogenic locus notch homolog protein 3 (Human, UniProt Q9UM47); assay: Inhibition of Notch3 intracellular domain fragment transfected in human HeLa cells co-transfected with CBF1-PGL3 luciferase reporter vector by transactivation assay
Sequence of Neurogenic locus notch homolog protein 3 (Q9UM47 whole entry, the tested form may be a part): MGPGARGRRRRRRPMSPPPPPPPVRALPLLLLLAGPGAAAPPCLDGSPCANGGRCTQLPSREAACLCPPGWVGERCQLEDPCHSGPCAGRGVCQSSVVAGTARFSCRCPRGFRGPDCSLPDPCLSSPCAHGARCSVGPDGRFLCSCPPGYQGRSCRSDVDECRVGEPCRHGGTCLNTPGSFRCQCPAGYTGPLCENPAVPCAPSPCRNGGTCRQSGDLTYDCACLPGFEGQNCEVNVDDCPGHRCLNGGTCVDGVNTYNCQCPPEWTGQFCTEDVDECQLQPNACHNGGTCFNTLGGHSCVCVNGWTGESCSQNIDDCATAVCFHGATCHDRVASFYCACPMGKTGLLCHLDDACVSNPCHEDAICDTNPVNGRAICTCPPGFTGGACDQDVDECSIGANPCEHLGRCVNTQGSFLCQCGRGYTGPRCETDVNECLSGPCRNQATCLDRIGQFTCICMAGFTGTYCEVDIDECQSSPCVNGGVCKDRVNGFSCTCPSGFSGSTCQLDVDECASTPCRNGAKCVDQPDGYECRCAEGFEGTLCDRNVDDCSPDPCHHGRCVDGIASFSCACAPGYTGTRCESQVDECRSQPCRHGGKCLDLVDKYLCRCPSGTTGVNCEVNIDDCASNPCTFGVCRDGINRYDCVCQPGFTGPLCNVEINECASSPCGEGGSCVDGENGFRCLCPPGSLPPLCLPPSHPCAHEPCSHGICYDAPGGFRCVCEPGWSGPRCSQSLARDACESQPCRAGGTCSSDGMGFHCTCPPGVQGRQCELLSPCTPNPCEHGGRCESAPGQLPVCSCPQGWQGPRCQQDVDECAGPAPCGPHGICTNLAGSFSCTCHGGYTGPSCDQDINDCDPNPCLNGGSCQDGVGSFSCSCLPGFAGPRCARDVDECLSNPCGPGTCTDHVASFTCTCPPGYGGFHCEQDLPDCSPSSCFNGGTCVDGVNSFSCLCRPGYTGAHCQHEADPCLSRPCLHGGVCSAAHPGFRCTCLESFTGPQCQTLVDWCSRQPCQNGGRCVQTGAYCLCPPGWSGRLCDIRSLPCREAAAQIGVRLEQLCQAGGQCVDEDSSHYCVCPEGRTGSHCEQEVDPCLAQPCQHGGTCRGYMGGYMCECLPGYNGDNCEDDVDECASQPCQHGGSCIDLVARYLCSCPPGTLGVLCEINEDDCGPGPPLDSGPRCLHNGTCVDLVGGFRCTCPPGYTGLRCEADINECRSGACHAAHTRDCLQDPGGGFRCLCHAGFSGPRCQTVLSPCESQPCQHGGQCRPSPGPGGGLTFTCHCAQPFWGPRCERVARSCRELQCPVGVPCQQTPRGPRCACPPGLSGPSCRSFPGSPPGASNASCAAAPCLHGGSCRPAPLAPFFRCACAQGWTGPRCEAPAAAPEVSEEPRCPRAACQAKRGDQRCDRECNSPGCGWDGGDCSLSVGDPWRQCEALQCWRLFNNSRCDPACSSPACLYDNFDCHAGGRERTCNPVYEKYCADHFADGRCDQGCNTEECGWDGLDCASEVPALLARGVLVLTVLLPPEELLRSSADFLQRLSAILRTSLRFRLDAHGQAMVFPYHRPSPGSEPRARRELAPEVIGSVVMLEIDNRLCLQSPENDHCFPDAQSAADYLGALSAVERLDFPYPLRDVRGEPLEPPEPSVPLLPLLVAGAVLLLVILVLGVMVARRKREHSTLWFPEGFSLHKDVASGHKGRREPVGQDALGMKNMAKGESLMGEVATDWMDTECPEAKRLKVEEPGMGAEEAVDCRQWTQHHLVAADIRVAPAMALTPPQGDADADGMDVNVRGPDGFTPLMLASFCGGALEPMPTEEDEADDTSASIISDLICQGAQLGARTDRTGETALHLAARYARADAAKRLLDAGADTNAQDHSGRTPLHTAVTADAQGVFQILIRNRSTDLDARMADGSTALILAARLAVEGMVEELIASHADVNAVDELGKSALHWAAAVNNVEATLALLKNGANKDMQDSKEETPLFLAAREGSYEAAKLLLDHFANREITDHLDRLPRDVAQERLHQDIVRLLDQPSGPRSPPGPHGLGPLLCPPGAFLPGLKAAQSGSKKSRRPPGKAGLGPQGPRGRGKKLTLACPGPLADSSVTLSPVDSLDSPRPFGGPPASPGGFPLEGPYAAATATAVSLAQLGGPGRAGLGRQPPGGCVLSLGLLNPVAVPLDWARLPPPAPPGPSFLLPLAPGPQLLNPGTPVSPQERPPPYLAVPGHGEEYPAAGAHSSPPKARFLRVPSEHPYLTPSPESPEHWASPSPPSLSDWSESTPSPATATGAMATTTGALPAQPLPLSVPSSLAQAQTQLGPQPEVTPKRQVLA

[3] = target: Neurogenic locus notch homolog protein 4 (Homo sapiens, UniProt Q99466); assay: Inhibition of Notch4 intracellular domain fragment transfected in human HeLa cells co-transfected with CBF1-PGL3 luciferase reporter vector by transactivation assay
[4] = target: Neurogenic locus notch homolog protein 2 (Homo sapiens, UniProt Q04721); assay: Inhibition of Notch2 intracellular domain fragment transfected in human HeLa cells co-transfected with CBF1-PGL3 luciferase reporter vector by transactivation assay

Sequence of Neurogenic locus notch homolog protein 1 (P46531 whole entry, the tested form may be a part): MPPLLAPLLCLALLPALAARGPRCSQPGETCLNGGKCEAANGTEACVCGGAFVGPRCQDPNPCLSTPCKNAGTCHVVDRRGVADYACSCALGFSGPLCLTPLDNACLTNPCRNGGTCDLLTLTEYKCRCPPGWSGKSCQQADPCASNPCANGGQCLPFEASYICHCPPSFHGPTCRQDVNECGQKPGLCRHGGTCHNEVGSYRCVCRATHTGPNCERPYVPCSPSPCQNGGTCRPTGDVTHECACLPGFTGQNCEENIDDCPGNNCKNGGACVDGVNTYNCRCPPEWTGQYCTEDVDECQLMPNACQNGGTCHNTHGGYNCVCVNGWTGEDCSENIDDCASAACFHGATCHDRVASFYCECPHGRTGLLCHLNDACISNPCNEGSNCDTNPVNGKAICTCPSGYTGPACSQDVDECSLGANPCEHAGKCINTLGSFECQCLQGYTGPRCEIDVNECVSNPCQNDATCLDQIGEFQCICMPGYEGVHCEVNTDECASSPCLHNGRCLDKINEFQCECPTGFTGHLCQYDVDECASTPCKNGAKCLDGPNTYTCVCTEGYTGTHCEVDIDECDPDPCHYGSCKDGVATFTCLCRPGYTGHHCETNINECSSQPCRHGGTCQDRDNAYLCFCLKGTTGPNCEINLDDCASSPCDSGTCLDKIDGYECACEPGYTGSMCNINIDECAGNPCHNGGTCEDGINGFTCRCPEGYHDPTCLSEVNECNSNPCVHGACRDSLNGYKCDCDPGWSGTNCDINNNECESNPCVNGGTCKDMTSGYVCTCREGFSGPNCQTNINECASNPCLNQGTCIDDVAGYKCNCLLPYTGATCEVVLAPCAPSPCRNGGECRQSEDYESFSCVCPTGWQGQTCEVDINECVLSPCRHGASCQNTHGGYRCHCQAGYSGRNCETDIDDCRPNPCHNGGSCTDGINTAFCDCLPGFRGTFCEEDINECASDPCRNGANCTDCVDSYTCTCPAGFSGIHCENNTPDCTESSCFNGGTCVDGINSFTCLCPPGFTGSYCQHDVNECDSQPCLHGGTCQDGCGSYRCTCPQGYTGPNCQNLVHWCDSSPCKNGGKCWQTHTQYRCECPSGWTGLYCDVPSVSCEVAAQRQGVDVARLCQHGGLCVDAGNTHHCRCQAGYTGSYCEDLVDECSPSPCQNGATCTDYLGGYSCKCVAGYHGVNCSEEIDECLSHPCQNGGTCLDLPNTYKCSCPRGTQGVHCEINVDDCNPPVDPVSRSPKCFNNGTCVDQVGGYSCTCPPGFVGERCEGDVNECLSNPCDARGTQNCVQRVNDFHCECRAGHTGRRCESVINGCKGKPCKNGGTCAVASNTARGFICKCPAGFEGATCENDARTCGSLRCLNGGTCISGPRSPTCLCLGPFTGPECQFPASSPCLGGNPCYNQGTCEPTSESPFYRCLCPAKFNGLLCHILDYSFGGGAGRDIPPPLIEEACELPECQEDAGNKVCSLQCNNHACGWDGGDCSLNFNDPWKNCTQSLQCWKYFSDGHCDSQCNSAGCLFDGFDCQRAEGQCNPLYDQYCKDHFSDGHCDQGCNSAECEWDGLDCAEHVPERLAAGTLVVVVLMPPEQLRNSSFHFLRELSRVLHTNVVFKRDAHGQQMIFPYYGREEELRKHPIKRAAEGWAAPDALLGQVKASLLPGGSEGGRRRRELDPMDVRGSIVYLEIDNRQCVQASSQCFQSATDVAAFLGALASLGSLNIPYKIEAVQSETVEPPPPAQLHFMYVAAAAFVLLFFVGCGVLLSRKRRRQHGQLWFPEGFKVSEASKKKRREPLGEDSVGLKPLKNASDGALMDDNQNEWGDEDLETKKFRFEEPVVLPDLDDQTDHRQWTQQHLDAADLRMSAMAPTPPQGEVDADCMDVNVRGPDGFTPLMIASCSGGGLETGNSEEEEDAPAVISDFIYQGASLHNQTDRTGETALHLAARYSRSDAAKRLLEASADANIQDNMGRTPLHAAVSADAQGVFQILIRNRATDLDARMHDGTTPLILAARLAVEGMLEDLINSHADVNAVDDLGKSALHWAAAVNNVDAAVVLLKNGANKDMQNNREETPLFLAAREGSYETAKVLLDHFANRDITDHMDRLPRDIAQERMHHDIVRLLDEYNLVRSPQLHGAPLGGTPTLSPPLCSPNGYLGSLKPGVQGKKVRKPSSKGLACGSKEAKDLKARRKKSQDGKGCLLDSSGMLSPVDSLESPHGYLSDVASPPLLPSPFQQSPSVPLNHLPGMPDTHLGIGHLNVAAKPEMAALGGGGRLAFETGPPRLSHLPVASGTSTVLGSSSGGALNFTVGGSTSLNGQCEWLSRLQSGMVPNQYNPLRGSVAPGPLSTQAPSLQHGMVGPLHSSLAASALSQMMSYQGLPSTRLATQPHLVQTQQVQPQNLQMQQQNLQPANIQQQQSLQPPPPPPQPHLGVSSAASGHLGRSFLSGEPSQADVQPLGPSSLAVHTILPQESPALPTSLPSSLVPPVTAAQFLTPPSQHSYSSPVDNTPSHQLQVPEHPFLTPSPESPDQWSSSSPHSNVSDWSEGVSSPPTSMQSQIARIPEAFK

SMILES	IC50 [1] [nM]	IC50 [2] [nM]	IC50 [3] [nM]	IC50 [4] [nM]
CN1C(=O)[C@@H](NC(=O)[C@H](CCC(F)(F)F)[C@@H](C(N)=O)c2cccc(OC(F)(F)F)c2)N=C(c2ccccc2)c2ccccc21	3	4	–	–
NC(=O)[C@@H](c1cocn1)[C@@H](CCC(F)(F)F)C(=O)N[C@H]1N=C(c2ccccc2)c2ccccc2NC1=O	231	161	–	–
CCC(CC)[C@H](C(N)=O)[C@@H](CCC(F)(F)F)C(=O)N[C@H]1N=C(c2ccccc2)c2ccccc2N(C)C1=O	1	1	–	–
CN1C(=O)[C@@H](NC(=O)[C@H](CCC(F)(F)F)[C@@H](C(N)=O)c2cccc(S(C)(=O)=O)c2)N=C(c2ccccc2)c2ccccc21	2060	2240	–	–
CN1C(=O)[C@@H](NC(=O)[C@H](CCC(F)(F)F)[C@@H](C(N)=O)c2cccc(C(F)(F)F)c2)N=C(c2ccccc2)c2ccccc21	1	2	–	–
CCC(CC)[C@H](C(N)=O)[C@@H](CC(C)C)C(=O)N[C@H]1N=C(c2ccccc2)c2ccccc2N(C)C1=O	2	–	–	–
CN1C(=O)[C@@H](NC(=O)[C@H](CCC(F)(F)F)[C@@H](C(N)=O)c2ccc(F)cc2)N=C(c2ccccc2)c2ccccc21	2	1	–	–
COc1ccc([C@H](C(N)=O)[C@@H](CCC(F)(F)F)C(=O)N[C@H]2N=C(c3ccccc3)c3ccccc3N(C)C2=O)cc1	9	6	–	–
Cc1cc([C@H](C(N)=O)[C@@H](CCC(F)(F)F)C(=O)N[C@H]2N=C(c3ccccc3)c3ccccc3N(C)C2=O)no1	54	62	–	–
Cc1nocc1[C@H](C(N)=O)[C@@H](CCC(F)(F)F)C(=O)N[C@H]1N=C(c2ccccc2)c2ccccc2N(C)C1=O	3	3	–	–
NC(=O)[C@@H](c1ncon1)[C@@H](CCC(F)(F)F)C(=O)N[C@H]1N=C(c2ccccc2)c2ccccc2NC1=O	1190	656	–	–
CN1C(=O)[C@@H](NC(=O)[C@H](CCC(F)(F)F)[C@@H](C(N)=O)c2ccc(F)c(F)c2)N=C(c2ccccc2)c2ccccc21	2	2	–	–
CN1C(=O)[C@@H](NC(=O)[C@H](CCC(F)(F)F)[C@@H](C(N)=O)c2ccccc2)N=C(c2ccccc2)c2ccccc21	–	–	3	1
Cc1cccc([C@H](C(N)=O)[C@@H](CCC(F)(F)F)C(=O)N[C@H]2N=C(c3ccccc3)c3ccccc3N(C)C2=O)c1	3	1	–	–
CN1C(=O)[C@@H](NC(=O)[C@H](CCC(F)(F)F)[C@@H](C(N)=O)c2cc(F)cc(F)c2)N=C(c2ccccc2)c2ccccc21	2	2	–	–
NC(=O)[C@@H](c1cnoc1)[C@@H](CCC(F)(F)F)C(=O)N[C@H]1N=C(c2ccccc2)c2ccccc2NC1=O	32	29	–	–
CCC[C@H](C(N)=O)[C@@H](CC(F)(F)F)C(=O)N[C@H]1N=C(c2ccccc2)c2ccccc2N(C)C1=O	13	24	–	–
Cc1nc([C@H](C(N)=O)[C@@H](CCC(F)(F)F)C(=O)N[C@H]2N=C(c3ccccc3)c3ccccc3N(C)C2=O)no1	169	119	–	–
CCC(CC)[C@H](C(N)=O)[C@@H](CC(C)(C)C)C(=O)N[C@H]1N=C(c2ccccc2)c2ccccc2N(C)C1=O	3	3	–	–
CN1C(=O)[C@@H](NC(=O)[C@H](CCC(F)(F)F)[C@@H](C(N)=O)c2ccc(F)cc2F)N=C(c2ccccc2)c2ccccc21	1	1	–	–
